In patent EP0624586B1, “Substituted pyrroles” (F. HOFFMANN-LA ROCHE AG, priority 1993, dated 1994):
Structures can show the parent of a compound that is named as a salt.

Target: protein kinase C
Experiment: in vitro protein kinase C inhibition (32P incorporation from [γ-32P]ATP into histone)
Format: biochemical
Conditions: protein kinase C isolated from rat brains; 10 µM [γ-32P]ATP, lysine-rich histone, 30°C, 10 minutes
Protocol: Reaction mixtures (100 µl) contain 10 µM [γ-^32P]ATP, 0.2 mg/ml (about 15 µM) lysine-rich histone, 0.5 mM CaCl2 and 40 µg/ml phosphatidylserine in 25 mM Tris HCl, 5 mM MgNO3 (pH 7.5) buffer. The enzyme protein kinase C is isolated from rat brains according to the method of Kikkawa et al., J. Biol. Chem. 257, 13341 (1982). The reaction is started by adding the enzyme, is run at 30°C for 10 minutes and is then stopped using 1 ml of ice-cold 10% trichloroacetic acid. Acid-precipitable protein is collected on glass fibre discs by filtration. These discs are then washed with 5% trichloroacetic acid containing 20 mM sodium pyrophosphate (in order to remove unreacted ATP), followed by ethanol. The discs are dried and counted. Counts associated with each disc are used as a measure of the incorporation of ^32P from [γ-^32P]ATP into histone. The degree of enzyme blockade at each test compound concentration is calculated from (Cpm incorporated + test compound + enzyme)/(Cpm incorporated - test compound + enzyme)x 100% [formula] The IC50 value is that concentration of test compound which reduces by 50% the protein kinase-induced incorporation of the ^32P under the assay conditions described above.

SMILES	IC50
CCC(N)[C@H]1CCn2c(c(C3=C(c4cn(C)c5ccccc45)C(=O)NC3=O)c3ccccc32)C1 (single isomer, unassigned) [Example 10, 3-[8(S)-[1(R or S)-aminopropyl]-6,7,8,9-tetrahydropyrido[1,2-a]indol-10-yl]-4-(1-methyl-3-indolyl)-1H-pyrrole-2,5-dione hydrochloride]	3.3 nM
CC(C)[C@H](N)[C@H]1CCn2c(c(C3=C(c4cn(C)c5ccccc45)C(=O)NC3=O)c3ccccc32)C1 [Example 11, 3-[8(S)-[1(S)-amino-2-methylpropyl]-6,7,8,9-tetrahydropyrido[1,2-a]indol-10-yl-4-(1-methyl-3-indolyl)-1H-pyrrole-2,5-dione hydrochloride]	5.5 nM
